# Reference: US11596639B2, “Substituted indole Mcl-1 inhibitors” (Vanderbilt University, priority 2016, dated 2023)
# Columns and labels:
# [1] = system: H929 human cancer cell lines; test: Cellular viability / proliferation (Cell TiterGlo, 72 h); format: cell-based; conditions: Homo sapiens, NCI-H929, 72 h, read-out: GI50 on cellular proliferation of H929 human cancer cell lines, H929 cells, 72 h, Cell TiterGlo, 10% FBS
# Outline: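 1,000 cells/well, 10% FBS medium; compound added at 24 h, 2-fold dilutions from 50 μM top, DMSO <1% final. 72 h exposure, CellTiterGlo 30 min RT dark, luminescence read. IC50 by 4-parameter fit.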
# Mcl-1 = Mcl-1 (Homo sapiens (Human), UniProt Q07820); test: Fluorescence polarization anisotropy (FPA) competition assay, FITC-Bak or FITC-Bim BH3 peptide; format: binding; conditions: read-out: Ki for Inhibition of Mcl-1 by FPA assay
# Sequence of Mcl-1 (Q07820 172-327): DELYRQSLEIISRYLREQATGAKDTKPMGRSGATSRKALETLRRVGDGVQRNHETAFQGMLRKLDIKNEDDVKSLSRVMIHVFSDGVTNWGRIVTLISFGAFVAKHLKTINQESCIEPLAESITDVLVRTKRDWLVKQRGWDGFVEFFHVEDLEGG
Compound,GI50 [1] [nM],Ki (Mcl-1) [nM]
"Cc1cc(OCCCc2c3n(c4c(-c5c(C)nn(C)c5C)c(Cl)ccc24)[C@H](C)CN(c2nn(CCN4CCOCC4)c4cc(C(=O)O)ccc24)C3=O)cc(C)c1Cl [Example 50, (R)-3-(7-chloro-10-(3-(4-chloro-3,5-dimethylphenoxy)propyl)-4-methyl-1-oxo-6-(1,3,5-trimethyl-1H-pyrazol-4-yl)-3,4-dihydropyrazino[1,2-a]indol-2(1H)-yl)-1-(2-morpholinoethyl)-1H-indazole-6-carboxylic acid]",710,< 1
"Cc1cc(OCCCc2c3n(c4c(-c5c(C)nn(C)c5C)c(Cl)ccc24)[C@H](C)CN(c2cccc4c(C(=O)O)nn(C)c24)C3=O)cc(C)c1Cl [Example 59, (R)-7-(7-chloro-10-(3-(4-chloro-3,5-dimethylphenoxy)propyl)-4-methyl-1-oxo-6-(1,3,5-trimethyl-1H-pyrazol-4-yl)-3,4-dihydropyrazino[1,2-a]indol-2(1H)-yl)-1-methyl-1H-indazole-3-carboxylic acid]",280,< 1
"Cc1cc(OCCCc2c3n(c4c(-c5c(C)nn(C)c5C)c(Cl)ccc24)[C@H](C)CN(c2cc(C(=O)O)cc4[nH]ccc24)C3=O)cc(C)c1Cl [Example 100, (R)-4-(7-chloro-10-(3-(4-chloro-3,5-dimethylphenoxy)propyl)-4-methyl-1-oxo-6-(1,3,5-trimethyl-1H-pyrazol-4-yl)-3,4-dihydropyrazino[1,2-a]indol-2(1H)-yl)-1H-indole-6-carboxylic acid]",5800,< 1
"Cc1cc(OCCCc2c3n(c4c(-c5c(C)nn(C)c5C)c(Cl)ccc24)[C@H](C)CN(c2cccc4c2cc(-c2nn[nH]n2)n4C)C3=O)cc(C)c1Cl [Example 307, (4R)-7-chloro-10-[3-(4-chloro-3,5-dimethyl-phenoxy)propyl]-4-methyl-2-[1-methyl-2-(2H-tetrazol-5-yl)indol-4-yl]-6-(1,3,5-trimethylpyrazol-4-yl)-3,4-dihydropyrazino[1,2-a]indol-1-one]",3500,1.3
"Cc1cc(OCCCc2c3n(c4c(-c5c(C)nn(C)c5C)c(Cl)ccc24)[C@H](C)CN(c2ccc(C(=O)O)c4ccn(C)c24)C3=O)cc(C)c1Cl [Example 52, (R)-7-(7-chloro-10-(3-(4-chloro-3,5-dimethylphenoxy)propyl)-4-methyl-1-oxo-6-(1,3,5-trimethyl-1H-pyrazol-4-yl)-3,4-dihydropyrazino[1,2-a]indol-2(1H)-yl)-1-methyl-1H-indole-4-carboxylic acid]",470,< 1
"Cc1cc(OCCCc2c3n(c4c(-c5c(C)nn(C)c5C)c(Cl)ccc24)[C@H](C)CN(c2cn(C)c4c(-c5nnn(C)n5)cccc24)C3=O)cc(C)c1Cl [Example 362, (R)-7-Chloro-10-(3-(4-chloro-3,5-dimethylphenoxy)propyl)-4-methyl-2-(1-methyl-7-(2-methyl-2H-tetrazol-5-yl)-1H-indol-3-yl)-6-(1,3,5-trimethyl-1H-pyrazol-4-yl)-3,4-dihydropyrazino[1,2-a]indol-1(2H)-one]",970,1.7
"Cc1cc(OCCCc2c3n(c4c(-c5c(C)nn(C)c5C)c(Cl)ccc24)[C@H](C)CN(c2cn(C)c4ccc(S(=O)(=O)N5CCNCC5)cc24)C3=O)cc(C)c1Cl [Example 265, (R)-7-chloro-10-(3-(4-chloro-3,5-dimethylphenoxy)propyl)-4-methyl-2-(1-methyl-5-(piperazin-1-ylsulfonyl)-1H-indol-3-yl)-6-(1,3,5-trimethyl-1H-pyrazol-4-yl)-3,4-dihydropyrazino[1,2-a]indol-1(2H)-one]",1500,8.2
"Cc1cc(OCCCc2c3n(c4c(-c5c(C)nn(C)c5C)c(Cl)ccc24)[C@H](C)CN(c2ccc4oc(C(=O)O)cc4c2)C3=O)cc(C)c1Cl [Example 196, (R)-5-(7-Chloro-10-(3-(4-chloro-3,5-dimethylphenoxy)propyl)-4-methyl-1-oxo-6-(1,3,5-trimethyl-1H-pyrazol-4-yl)-3,4-dihydropyrazino[1,2-a]indol-2(1H)-yl)benzofuran-2-carboxylic acid]",3400,< 1
